Patent publication US20110182982A1, “LIPOSOME TREATMENT OF VIRAL INFECTIONS” (University of Oxford, priority 2006, published 2011)

Tests used:
Test in all cases: p24 secretion of HIV-1-infected PBMCs
Format in all cases: cell-based
Settings in all cases: for % p24 secretion Week 1-rb / % p24 secretion Week 2-rb / % p24 secretion Week 3-rb / % p24 secretion Week 4-rb: treatment removed 2 weeks
HIV-1 isolate: BR93020 = tested on: HIV-1 isolate: BR93020
Experimental: (§1) Clearance of HIV-1 primary isolates from infected human cells by NB-DNJ was assessed using phytohemagglutinin (PHA)-activated peripheral blood mononuclear cells (PBMCs) as indicator cells and the determination of p24 antigen production as the end point.
(§2) PBMCs from four normal (uninfected) donors were isolated, pooled, and stimulated with PHA (5 μg/ml) for 48 h followed by PHA plus interleukin-2 (40 U/ml) for 72 h in RPMI 1640 medium containing 10% heat-inactivated fetal bovine serum (FBS), 100 U of penicillin per ml, 100 μg of streptomycin per ml, and 2 mM L-glutamine. All experiments were performed in 96-well microtiter plates. To infect cells, 100 μl of PHA-activated PBMCs (5×10^5/ml) was added to each well, after which an equal volume containing 100 50% tissue culture infective doses (TCID50) of primary isolate stock was added. After an overnight incubation, the cells were washed three times with tissue culture medium, and finally re-suspended in medium containing the appropriate liposome treatment or free NB-DNJ. On day 7, approximately 10-30% of the culture volume containing secreted HIV-1 virions was used to infect naïve PBMCs for a second round of infection and treatment (volume transferred was calculated to be the volume necessary for the untreated control of that isolate to infect naïve cells at a TCID50=100). Rounds of treatment and infection of naïve cells were continued over four weeks, and at every time point cellular supernatant containing secreted virions was isolated and used in capture ELISAs to determine p24 concentration (measure of secretion). Additionally, supernatant isolated at each time point throughout treatment was used to infect naïve PBMCs (TCID50=100) for two weeks with no further treatment, which allowed for the observation of a rebound in viral activity.
(§3) PBMCs infected with 8 primary isolates (listed in Table 3) were incubated in the presence of free NB-DNJ (concentrations ranging 0-1 mM) or liposome-encapsulated NB-DNJ (0-3.75 μM, final lipid concentration of 50 μM).

HIV-1 isolate: 93IN101 = tested on: HIV-1 isolate: 93IN101
Experimental: as §1, §2, §3

HIV-1 isolate: JR-FL = tested on: HIV-1 isolate: JR-FL
Experimental: as §1, §2, §3

HIV-1 isolate: UG92046 = tested on: HIV-1 isolate: UG92046
Experimental: as §1, §2, §3

[1] = Human immunodeficiency virus 1, PBMC, free, three rounds of treatment
[2] = 1 mM free in medium, first week

CCCCN1C[C@H](O)[C@@H](O)[C@H](O)[C@H]1CO [NB-DNJ, N-butyl-1,5-dideoxy-1,5-imino-D-glucitol]
IC50 (HIV-1 isolate: BR93020; [1]): 250 µM
IC90 (HIV-1 isolate: BR93020; [1]): 375 µM
% p24 secretion Week 1 (HIV-1 isolate: BR93020; NB-DNJ 250 uM): 89%
% p24 secretion Week 2 (HIV-1 isolate: BR93020; NB-DNJ 250 uM): 74%
% p24 secretion Week 3 (HIV-1 isolate: BR93020; NB-DNJ 250 uM): 53%
% p24 secretion Week 4 (HIV-1 isolate: BR93020; NB-DNJ 250 uM): 55%
% p24 secretion Week 1-rb (HIV-1 isolate: BR93020; NB-DNJ 250 uM): 97%
% p24 secretion Week 2-rb (HIV-1 isolate: BR93020; NB-DNJ 250 uM): 77%
% p24 secretion Week 3-rb (HIV-1 isolate: BR93020; NB-DNJ 250 uM): 71%
% p24 secretion Week 4-rb (HIV-1 isolate: BR93020; NB-DNJ 250 uM): 59%
% p24 secretion Week 1 (HIV-1 isolate: BR93020; NB-DNJ 500 uM): 60%
% p24 secretion Week 2 (HIV-1 isolate: BR93020; NB-DNJ 500 uM): 19%
% p24 secretion Week 3 (HIV-1 isolate: BR93020; NB-DNJ 500 uM): 1%
% p24 secretion Week 4 (HIV-1 isolate: BR93020; NB-DNJ 500 uM): 1%
% p24 secretion Week 1-rb (HIV-1 isolate: BR93020; NB-DNJ 500 uM): 68%
% p24 secretion Week 2-rb (HIV-1 isolate: BR93020; NB-DNJ 500 uM): 3%
% p24 secretion Week 3-rb (HIV-1 isolate: BR93020; NB-DNJ 500 uM): 0%
% p24 secretion Week 4-rb (HIV-1 isolate: BR93020; NB-DNJ 500 uM): 1%
% p24 secretion Week 1 (HIV-1 isolate: BR93020; NB-DNJ 1000 uM): 58%
% p24 secretion Week 2 (HIV-1 isolate: BR93020; NB-DNJ 1000 uM): 2%
% p24 secretion Week 3 (HIV-1 isolate: BR93020; NB-DNJ 1000 uM): 0%
% p24 secretion Week 4 (HIV-1 isolate: BR93020; NB-DNJ 1000 uM): 0%
% p24 secretion Week 1-rb (HIV-1 isolate: BR93020; NB-DNJ 1000 uM): 44%
% p24 secretion Week 2-rb (HIV-1 isolate: BR93020; NB-DNJ 1000 uM): 0%
% p24 secretion Week 3-rb (HIV-1 isolate: BR93020; NB-DNJ 1000 uM): 0%
% p24 secretion Week 4-rb (HIV-1 isolate: BR93020; NB-DNJ 1000 uM): 0%
decrease in secretion (HIV-1 isolate: 93IN101; [2]): 50%
% p24 secretion Week 1 (HIV-1 isolate: 93IN101; NB-DNJ 250 uM): 106%
% p24 secretion Week 2 (HIV-1 isolate: 93IN101; NB-DNJ 250 uM): 81%
% p24 secretion Week 3 (HIV-1 isolate: 93IN101; NB-DNJ 250 uM): 78%
% p24 secretion Week 4 (HIV-1 isolate: 93IN101; NB-DNJ 250 uM): 66%
% p24 secretion Week 1-rb (HIV-1 isolate: 93IN101; NB-DNJ 250 uM): 96%
% p24 secretion Week 2-rb (HIV-1 isolate: 93IN101; NB-DNJ 250 uM): 88%
% p24 secretion Week 3-rb (HIV-1 isolate: 93IN101; NB-DNJ 250 uM): 81%
% p24 secretion Week 4-rb (HIV-1 isolate: 93IN101; NB-DNJ 250 uM): 72%
% p24 secretion Week 1 (HIV-1 isolate: 93IN101; NB-DNJ 500 uM): 75%
% p24 secretion Week 2 (HIV-1 isolate: 93IN101; NB-DNJ 500 uM): 45%
% p24 secretion Week 3 (HIV-1 isolate: 93IN101; NB-DNJ 500 uM): 7%
% p24 secretion Week 4 (HIV-1 isolate: 93IN101; NB-DNJ 500 uM): 2%
% p24 secretion Week 1-rb (HIV-1 isolate: 93IN101; NB-DNJ 500 uM): 88%
% p24 secretion Week 2-rb (HIV-1 isolate: 93IN101; NB-DNJ 500 uM): 37%
% p24 secretion Week 3-rb (HIV-1 isolate: 93IN101; NB-DNJ 500 uM): 11%
% p24 secretion Week 4-rb (HIV-1 isolate: 93IN101; NB-DNJ 500 uM): 0%
% p24 secretion Week 1 (HIV-1 isolate: 93IN101; NB-DNJ 1000 uM): 67%
% p24 secretion Week 2 (HIV-1 isolate: 93IN101; NB-DNJ 1000 uM): 17%
% p24 secretion Week 3 (HIV-1 isolate: 93IN101; NB-DNJ 1000 uM): 3%
% p24 secretion Week 4 (HIV-1 isolate: 93IN101; NB-DNJ 1000 uM): 0%
% p24 secretion Week 1-rb (HIV-1 isolate: 93IN101; NB-DNJ 1000 uM): 51%
% p24 secretion Week 2-rb (HIV-1 isolate: 93IN101; NB-DNJ 1000 uM): 4%
% p24 secretion Week 3-rb (HIV-1 isolate: 93IN101; NB-DNJ 1000 uM): 1%
% p24 secretion Week 4-rb (HIV-1 isolate: 93IN101; NB-DNJ 1000 uM): 0%
reduction in viral secretion (HIV-1 isolate: JR-FL; [2]): 50%
% p24 secretion Week 1 (HIV-1 isolate: JR-FL; NB-DNJ 250 uM): 107%
% p24 secretion Week 2 (HIV-1 isolate: JR-FL; NB-DNJ 250 uM): 105%
% p24 secretion Week 3 (HIV-1 isolate: JR-FL; NB-DNJ 250 uM): 89%
% p24 secretion Week 4 (HIV-1 isolate: JR-FL; NB-DNJ 250 uM): 93%
% p24 secretion Week 1-rb (HIV-1 isolate: JR-FL; NB-DNJ 250 uM): 104%
% p24 secretion Week 2-rb (HIV-1 isolate: JR-FL; NB-DNJ 250 uM): 101%
% p24 secretion Week 3-rb (HIV-1 isolate: JR-FL; NB-DNJ 250 uM): 97%
% p24 secretion Week 4-rb (HIV-1 isolate: JR-FL; NB-DNJ 250 uM): 91%
% p24 secretion Week 1 (HIV-1 isolate: JR-FL; NB-DNJ 500 uM): 64%
% p24 secretion Week 2 (HIV-1 isolate: JR-FL; NB-DNJ 500 uM): 24%
% p24 secretion Week 3 (HIV-1 isolate: JR-FL; NB-DNJ 500 uM): 5%
% p24 secretion Week 4 (HIV-1 isolate: JR-FL; NB-DNJ 500 uM): 0%
% p24 secretion Week 1-rb (HIV-1 isolate: JR-FL; NB-DNJ 500 uM): 75%
% p24 secretion Week 2-rb (HIV-1 isolate: JR-FL; NB-DNJ 500 uM): 9%
% p24 secretion Week 3-rb (HIV-1 isolate: JR-FL; NB-DNJ 500 uM): 4%
% p24 secretion Week 4-rb (HIV-1 isolate: JR-FL; NB-DNJ 500 uM): 2%
% p24 secretion Week 1 (HIV-1 isolate: JR-FL; NB-DNJ 1000 uM): 44%
% p24 secretion Week 2 (HIV-1 isolate: JR-FL; NB-DNJ 1000 uM): 9%
% p24 secretion Week 3 (HIV-1 isolate: JR-FL; NB-DNJ 1000 uM): 1%
% p24 secretion Week 4 (HIV-1 isolate: JR-FL; NB-DNJ 1000 uM): 0%
% p24 secretion Week 1-rb (HIV-1 isolate: JR-FL; NB-DNJ 1000 uM): 56%
% p24 secretion Week 2-rb (HIV-1 isolate: JR-FL; NB-DNJ 1000 uM): 5%
% p24 secretion Week 3-rb (HIV-1 isolate: JR-FL; NB-DNJ 1000 uM): 1%
% p24 secretion Week 4-rb (HIV-1 isolate: JR-FL; NB-DNJ 1000 uM): 0%
% p24 secretion Week 1 (HIV-1 isolate: UG92046; NB-DNJ 250 uM): 91%
% p24 secretion Week 2 (HIV-1 isolate: UG92046; NB-DNJ 250 uM): 115%
% p24 secretion Week 3 (HIV-1 isolate: UG92046; NB-DNJ 250 uM): 91%
% p24 secretion Week 4 (HIV-1 isolate: UG92046; NB-DNJ 250 uM): 79%
% p24 secretion Week 1-rb (HIV-1 isolate: UG92046; NB-DNJ 250 uM): 99%
% p24 secretion Week 2-rb (HIV-1 isolate: UG92046; NB-DNJ 250 uM): 92%
% p24 secretion Week 3-rb (HIV-1 isolate: UG92046; NB-DNJ 250 uM): 94%
% p24 secretion Week 4-rb (HIV-1 isolate: UG92046; NB-DNJ 250 uM): 89%
% p24 secretion Week 1 (HIV-1 isolate: UG92046; NB-DNJ 500 uM): 79%
% p24 secretion Week 2 (HIV-1 isolate: UG92046; NB-DNJ 500 uM): 39%
% p24 secretion Week 3 (HIV-1 isolate: UG92046; NB-DNJ 500 uM): 10%
% p24 secretion Week 4 (HIV-1 isolate: UG92046; NB-DNJ 500 uM): 0%
% p24 secretion Week 1-rb (HIV-1 isolate: UG92046; NB-DNJ 500 uM): 75%
% p24 secretion Week 2-rb (HIV-1 isolate: UG92046; NB-DNJ 500 uM): 43%
% p24 secretion Week 3-rb (HIV-1 isolate: UG92046; NB-DNJ 500 uM): 15%
% p24 secretion Week 4-rb (HIV-1 isolate: UG92046; NB-DNJ 500 uM): 0%
% p24 secretion Week 1 (HIV-1 isolate: UG92046; NB-DNJ 1000 uM): 64%
% p24 secretion Week 2 (HIV-1 isolate: UG92046; NB-DNJ 1000 uM): 15%
% p24 secretion Week 3 (HIV-1 isolate: UG92046; NB-DNJ 1000 uM): 3%
% p24 secretion Week 4 (HIV-1 isolate: UG92046; NB-DNJ 1000 uM): 0%
% p24 secretion Week 1-rb (HIV-1 isolate: UG92046; NB-DNJ 1000 uM): 64%
% p24 secretion Week 2-rb (HIV-1 isolate: UG92046; NB-DNJ 1000 uM): 21%
% p24 secretion Week 3-rb (HIV-1 isolate: UG92046; NB-DNJ 1000 uM): 1%
% p24 secretion Week 4-rb (HIV-1 isolate: UG92046; NB-DNJ 1000 uM): 0%
